Patent publication US20230219956A1 (BETTA PHARMACEUTICALS CO.,LTD, priority 2019, published 2023)

Columns and labels:
MIA-PACA-2 cells = test: Cell proliferation assay, MIA-PACA-2 cells (Cell-titer Glo); type: cell-based; details: Homo sapiens, 96 h incubation
Description: (§1) Pave the MIA-PACA-2 cells into a 96-well ultra-low adsorption plate at 600 cells, 160 μL/well. After incubating overnight, compound solutions of gradient concentration was prepared, and added 40 μL of DMSO solution of the test compound of each concentration to the cells of each well. The final concentration of the compound is 10000, 2000, 400, 80, 16, 3.2, 0.64, 0.12, 0.025, 0 nM (the final concentration of DMSO is 0.25%). Incubated for 96 h at 37° C. and 5% CO2. 50 μL of Cell-titer Glo working solution was added to each well, shaked and mixed, and incubated at room temperature for 10 minutes. The multi-functional microplate reader read the luminescence value, and converted the luminescence value reading into inhibition percentage.
(§2) Inhibition percentage=(maximum value−reading)/(maximum value−minimum value)*100.
(§3) The “maximum value” was the DMSO control, the “minimum value” indicates the cell-free control group.
(§4) Graphpad Prism software was used to perform curve fitting and obtain IC50 value.
Refer to Table 3 for the IC50 data of some compounds in the examples inhibiting MIA-PACA-2 cells.

H358 cells = test: Cell proliferation assay, H358 cells (Cell-titer Glo); type: cell-based; details: Homo sapiens, NCI-H358, 96 h incubation
Description: as §1, with “the H358” for “the MIA-PACA-2”, “cells on” for “cells into”, “plate with 2000 cells and 190” for “plate at 600 cells, 160”, “added 10” for “added 40”, “10000, 3333.3, 1111.1, 370.4, 123.5, 41.2, 13.7, 4.6, 1.5,” for “10000, 2000, 400, 80, 16, 3.2, 0.64, 0.12, 0.025,”
as §2, §3, §4
Refer to table 3 for the IC50 data of some compounds in the Examples for inhibiting H358 cells.

SMILES	IC50 (MIA-PACA-2 cells)	IC50 (H358 cells)
C=CC(=O)N1CC2(CCN(c3nc(C4CCN(C5COC5)CC4)nc4c(OCC(F)(F)F)c(-c5c(C)ccc6[nH]ncc56)c(C=C)cc34)CC2)C1 [Example 65, 1-(7-(7-(5-methyl-1H-indazol-4-yl)-2-(1-(oxacyclobutan-3-yl)piperidin-4-yl)-8-(2,2,2-trifluoroethoxy)-6-vinylquinazolin-4-yl)-2,7-diazspiro [3.5]nonan-2-yl) propyl-2-en-1-one]	8.9 nM	4.4 nM
C=CC(=O)N1CC2(CCN(c3nc(C4CCN(C)CC4)nc4c(OCC(C)(C)O)c(-c5c(C)ccc6[nH]ncc56)c(C=C)cc34)CC2)C1 [Example 47, 1-(7-(8-(2-hydroxy-2-methylpropoxy)-7-(5-methyl-1H-indazol-4-yl)-2-(1-methylpiperidin-4-yl)-6-vinylquinazoline-4-yl)-2,7-diazaspiro[3.5]nonan-2-yl)prop-2-en-1-one]	47.7 nM	39 nM
C=CC(=O)N1CC2(CCN(c3nc(C4CCN(C)CC4)nc4c(OCC(F)F)c(-c5c(C)ccc6[nH]ncc56)c(C5CC5)cc34)CC2)C1 [Example 24, 1-(7-(6-cyclopropyl-8-(2,2-difluoroethoxy)-7-(5-methyl-1H-indazol-4-yl)-2-(1-methylpiperidin-4-yl)quinazolin-4-yl)-2,7-diazaspiro[3.5]nonan-2-yl)prop-2-en-1-one]	14.5 nM	17.7 nM
C=CC(=O)N1CC2(CCN(c3nc(C4CCN(C)CC4)nc4c(OC(C)C)c(-c5c(C)ccc6[nH]ncc56)c(CC)cc34)CC2)C1 [Example 27]	388 nM	392 nM
C=CC(=O)N1CC2(CCN(c3nc(C4CCN(C5CCC5)CC4)nc4c(OCC(F)(F)F)c(-c5c(C)ccc6[nH]ncc56)c(C=C)cc34)CC2)C1 [Example 69, 1-(7-(2-(1-cyclobutylpiperidin-4-yl)-7-(5-methyl-1H-indazol-4-yl)-8-(2,2,2-trifluoroethoxy)-6-vinylquinazolin-4-yl)-2,7-diazspiro [3.5]nonan-2-yl) propyl-2-en-1-one]	3.7 nM	3.4 nM
C=CC(=O)N1CC2(CCN(c3nc(C4CCN(C(=O)OC)CC4)nc4c(OCC(F)F)c(-c5c(C)ccc6[nH]ncc56)c(C=C)cc34)CC2)C1 [Example 85, Methyl 4-(4-(2-acryloyl-2,7-diazazospiro [3.5]nonan-7-yl)-8-(2,2-difluoroethoxy)-7-(5-methyl-1H-indazole-4-yl)-6-vinylquinazolin-2-yl) piperidine-1-carboxylic acid]	91.7 nM	124 nM
C=CC(=O)N1CC2(CCN(c3nc(C4CCN(C)CC4)nc4c(OCC(F)(F)F)c(-c5ccnc6[nH]ncc56)c(C5CC5)cc34)CC2)C1 [Example 18]	177 nM	715 nM
C=CC(=O)N1CC2(CCN(c3nc(C4CCN(C)CC4)nc4c(OCCOC)c(-c5c(C)ccc6[nH]ncc56)c(C5CC5)cc34)CC2)C1 [Example 22, 1-(7-(6-cyclopropyl-8-(2-methoxyethoxy)-7-(5-methyl-1H-indazol-4-yl)-2-(1-methylpiperidin-4-yl)quinazolin-4-yl)-2,7-diazaspiro[3.5]nonan-2-yl)prop-2-en-1-one]	21 nM	49.6 nM
C=CC(=O)N1CC2(CCN(c3nc(C4CCN(CCO)CC4)nc4c(OCC(F)(F)F)c(-c5c(C)ccc6[nH]ncc56)c(C=C)cc34)CC2)C1 [Example 61, 1-(7-(2-(1-(2-(hydroxyethyl))piperidin-4-yl)-7-(5-methyl-1H-indazole-4-yl)-8-(2,2,2-trifluoroethoxy)-6-vinylquinazolin-4-yl)-2,7-diazarospiro [3.5]nonan-2-yl) propyl-2-en-1-one]	8 nM	4.9 nM
C=CC(=O)N1CC2(CCN(c3nc(C4CCN(CCOC)CC4)nc4c(OCC(F)(F)F)c(-c5c(C)ccc6[nH]ncc56)c(CC)cc34)CC2)C1 [Example 35, 1-(7-(6-ethyl-2-(1-(2-methoxyethyl)piperidin-4-yl)-7-(5-methyl-1H-indazol-4-yl)-8-(2,2,2-trifluoroethoxy)quinazolin-4-yl)-2,7-diazaspiro[3.5]nonan-2-yl)prop-2-en-1-one]	10.9 nM	9.6 nM
C=CC(=O)N1CC2(CCN(c3nc(C4CCN(C)CC4)nc4c(OCCF)c(-c5c(C)ccc6[nH]ncc56)c(CC)cc34)CC2)C1 [Example 29]	455 nM	1080 nM
C=CC(=O)N1CC2(CCN(c3nc(C4CCN(C)CC4)nc4c(OCC(F)(F)F)c(-c5c(C)ccc6[nH]ncc56)c(Cl)cc34)CC2)C1 [Example 32, 1-(7-(6-chloro-7-(5-methyl-1H-indazol-4-yl)-2-(1-methylpiperidin-4-yl)-8-(2,2,2-trifluoroethoxy)quinazoline-4-yl)-2,7-diazaspiro[3.5]nonan-2-yl)prop-2-en-1-one]	16.7 nM	17.9 nM
C=CC(=O)N1CC2(CCN(c3nc(C4CCN(Cc5cnn(C)c5)CC4)nc4c(OCC(F)(F)F)c(-c5c(C)ccc6[nH]ncc56)c(C=C)cc34)CC2)C1 [Example 78, 1-(7-(7-(5-methyl-1H-indazol-4-yl)-2-(1-((1-methyl-1H-pyrazol-4-yl)methyl)piperidin-4-yl]-8-(2,2,2-trifluoroethoxy)-6-vinylquinazolin-4-yl)-2,7-diazarospiro [3.5]nonan-2-yl) propyl-2-en-1-one]	62.8 nM	27.2 nM
C=CC(=O)N1CC2(CCN(c3nc(C4CCN(C5CCN(C)CC5)CC4)nc4c(OCC(F)(F)F)c(-c5c(C)ccc6[nH]ncc56)c(C=C)cc34)CC2)C1 [Example 66, 1-(7-(7-(5-methyl-1H-indazol-4-yl)-2-(1′-methyl-[1,4-bipiperidine]-4-yl)-8-(2,2,2-trifluoroethoxy)-6-vinylquinazolin-4-yl)-2,7-diazspiro [3.5]nonan-2-yl) propyl-2-en-1-one]	8.5 nM	11.5 nM
C=CC(=O)N1CC2(CCN(c3nc(C4CCN(C)CC4)nc4c(OCC5(C#N)CC5)c(-c5c(C)ccc6[nH]ncc56)c(C=C)cc34)CC2)C1 [Example 49]	9.8 nM	11.5 nM
C=CC(=O)N1CC2(CCN(c3nc(C4CCN(C)CC4)nc4c(OCCOC)c(-c5c(C)ccc6[nH]ncc56)c(CC)cc34)CC2)C1 [Example 30]	171 nM	60.5 nM
C=CC(=O)N1CC2(CCN(c3nc(C4CCN(C)CC4)nc4c(OCC(F)(F)F)c(-c5cc(F)cc(F)c5)c(C5CC5)cc34)CC2)C1 [Example 20]	1320 nM	4200 nM
C=CC(=O)N1CC2(CCN(c3nc(C4CCN(C)CC4)nc4c(OCC)c(-c5c(C)ccc6[nH]ncc56)c(CC)cc34)CC2)C1 [Example 25]	32.6 nM	13 nM
C=CC(=O)N1CC2(CCN(c3nc(C4CCN(C5CC6CCC(C5)N6C)CC4)nc4c(OCC(F)(F)F)c(-c5c(C)ccc6[nH]ncc56)c(C=C)cc34)CC2)C1 (stereo not shown) [Example 83, 1-(7-(7-(5-methyl-1H-indazole-4-yl)-2-(1-(8-methyl-8-azabicyclo [3.2.1]cindan-3-yl]piperidin-4-yl)8(2,2,2-trifluoroethoxy)-6-vinylquinazolin-4-yl)-2,7-diazspiro [3.5]nonan-2-yl) propyl-2-en-1-one]	136 nM	159 nM
C=CC(=O)N1CC2(CCN(c3nc(C4CN(CCC#N)C4)nc4c(OCC(F)(F)F)c(-c5c(C)ccc6[nH]ncc56)c(CC)cc34)CC2)C1 [Example 39, 3-(3-(4-(2-acryloyl-2,7-diazaspiro[3.5]nonan-7-yl)-6-ethyl-7-(5-methyl-1H-indazol-4-yl)-8-(2,2,2-trifluoroethoxy)quinazolin-2-yl)azetidin-1-yl)propionitrile]	78 nM	97.8 nM
C=CC(=O)N1CC2(CCN(c3nc(C4CN(C5CCC5)C4)nc4c(OCC(F)(F)F)c(-c5c(C)ccc6[nH]ncc56)c(CC)cc34)CC2)C1 [Example 43, 1-(7-(2-(1-cyclobutylazocyclobutane-3-yl)-6-ethyl-7-(5-methyl-1H-indazole-4-yl)-8-(2,2,2-trifluoroethoxy)quinazolin-4-yl)-2,7-diazarospiro [3.5]nonan-2-yl) propyl-2-en-1-one]	378 nM	315 nM
C=Cc1cc2c(N3CCC4(CC3)CN(C(=O)C(=C)F)C4)nc(C3CCN(CCC#N)CC3)nc2c(OCC(F)(F)F)c1-c1c(C)ccc2[nH]ncc12 [Example 86, 3-(4-(4-(2-(2-Fluoroacryloyl)-2,7-diazspiro [3.5]nonan-7-yl)-7-(5-methyl-1H-indazole-4-yl)-8-(2,2,2-trifluoroethoxy)-6-vinylquinazolin-2-yl)piperidin-1-yl) propionitrile]	208 nM	85.8 nM
C=CC(=O)N1CC2(CCN(c3nc(C4CCN(C)CC4)nc4c(OC5CCC5)c(-c5c(C)ccc6[nH]ncc56)c(CC)cc34)CC2)C1 [Example 26]	68.2 nM	24.9 nM
